Assay results as given in patent US9249129B2, “Morpholino substituted urea derivatives as mTOR inhibitors” (CELLZOME LIMITED, priority 2010, dated 2016).

Legend:
Assay in all cases: kinobeads assay with mass spectrometry detection of kinases (kinase selectivity profile)
Assay type in all cases: binding
kinases (kinome) [1] = target: kinases (kinome) (Homo sapiens, UniProt Q15418); details: RSK3 (AGC), IPI00477982
From the text: (§1) The protein kinase complement of the human genome (the kinome) was described previously (Manning et al., 2002. Science 298(5600):1912-1934). Sequence accession numbers are defined by the International Protein Index (IPI) (Kersey et al., 2004. Proteomics 4(7):1985-1988).

kinases (kinome) [2] = target: T1, kinases (kinome) (Homo sapiens, UniProt Q04759); details: PKCt (AGC), IPI00029196
T1 construct: determined in kinobeads assays with mass spectrometry detection of kinases as described previously; endogenous in cells; host or cells: cell lysate
From the text: as §1

kinases (kinome) [3] = target: T2, kinases (kinome) (Homo sapiens, UniProt P42338); details: PIK3Cb (Lipid Kinase), IPI00031388
T2 construct: determined in kinobeads assays with mass spectrometry detection of kinases as described previously; endogenous in cells; host or cells: cell lysate
From the text: as §1

kinases (kinome) [4] = target: T3, kinases (kinome) (Homo sapiens, UniProt O43353); details: RIPK2 (TKL), IPI00021917
T3 construct: determined in kinobeads assays with mass spectrometry detection of kinases as described previously; endogenous in cells; host or cells: cell lysate
From the text: as §1

kinases (kinome) [5] = target: T4, kinases (kinome) (Homo sapiens, UniProt P53671); details: LIMK2 (TKL), IPI00025698
T4 construct: determined in kinobeads assays with mass spectrometry detection of kinases as described previously; endogenous in cells; host or cells: cell lysate
From the text: as §1

kinases (kinome) [6] = target: T5, kinases (kinome) (Homo sapiens, UniProt O60885); details: BRD4 (Atypical), IPI00440727
T5 construct: determined in kinobeads assays with mass spectrometry detection of kinases as described previously; endogenous in cells; host or cells: cell lysate
From the text: as §1

kinases (kinome) [7] = target: T6, kinases (kinome) (Homo sapiens, UniProt Q08345); details: DDR1 (TK), IPI00657861
T6 construct: determined in kinobeads assays with mass spectrometry detection of kinases as described previously; endogenous in cells; host or cells: cell lysate
From the text: as §1

kinases (kinome) [8] = target: T7, kinases (kinome) (Homo sapiens, UniProt Q12851); details: GCK (STE), IPI00149094
T7 construct: determined in kinobeads assays with mass spectrometry detection of kinases as described previously; endogenous in cells; host or cells: cell lysate
T7 sequence (Q12851 1-820): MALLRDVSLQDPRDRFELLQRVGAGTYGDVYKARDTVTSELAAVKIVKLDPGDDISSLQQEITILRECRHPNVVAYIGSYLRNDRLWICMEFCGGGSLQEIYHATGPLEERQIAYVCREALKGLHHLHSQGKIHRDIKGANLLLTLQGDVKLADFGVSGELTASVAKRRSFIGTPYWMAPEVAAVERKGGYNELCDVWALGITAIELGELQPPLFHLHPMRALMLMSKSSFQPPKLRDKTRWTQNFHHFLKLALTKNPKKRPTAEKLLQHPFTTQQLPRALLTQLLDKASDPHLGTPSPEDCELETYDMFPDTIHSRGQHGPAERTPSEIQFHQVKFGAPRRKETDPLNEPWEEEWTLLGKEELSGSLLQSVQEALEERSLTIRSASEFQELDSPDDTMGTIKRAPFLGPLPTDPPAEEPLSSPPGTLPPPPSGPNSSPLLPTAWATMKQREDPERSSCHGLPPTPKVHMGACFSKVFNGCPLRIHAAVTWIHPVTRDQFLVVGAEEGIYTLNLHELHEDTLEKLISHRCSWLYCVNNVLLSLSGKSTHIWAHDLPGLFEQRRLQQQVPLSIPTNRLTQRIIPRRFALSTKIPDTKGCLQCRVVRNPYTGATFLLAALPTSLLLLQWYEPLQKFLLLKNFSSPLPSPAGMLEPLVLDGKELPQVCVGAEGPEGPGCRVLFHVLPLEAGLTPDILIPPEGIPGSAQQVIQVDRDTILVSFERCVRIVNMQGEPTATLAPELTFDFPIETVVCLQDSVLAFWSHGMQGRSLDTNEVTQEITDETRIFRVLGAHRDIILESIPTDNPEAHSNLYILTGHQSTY
From the text: as §1

kinases (kinome) [9] = target: T8, kinases (kinome) (Homo sapiens, UniProt P48729); details: CK1a (CK1), IPI00448798
T8 construct: determined in kinobeads assays with mass spectrometry detection of kinases as described previously; endogenous in cells; host or cells: cell lysate
From the text: as §1

kinases (kinome) [10] = target: T9, kinases (kinome) (Homo sapiens, UniProt Q9H0K1); details: QIK (CAMK), IPI00465291
T9 construct: determined in kinobeads assays with mass spectrometry detection of kinases as described previously; endogenous in cells; host or cells: cell lysate
From the text: as §1

kinases (kinome) [11] = target: T10, kinases (kinome) (Homo sapiens, UniProt P27448); details: MARK3 (CAMK), IPI00183118
T10 construct: determined in kinobeads assays with mass spectrometry detection of kinases as described previously; endogenous in cells; host or cells: cell lysate
From the text: as §1

kinases (kinome) [12] = target: T11, kinases (kinome) (Homo sapiens, UniProt Q92918); details: HPK1 (STE), IPI00020258
T11 construct: determined in kinobeads assays with mass spectrometry detection of kinases as described previously; endogenous in cells; host or cells: cell lysate
From the text: as §1

kinases (kinome) [13] = target: T12, kinases (kinome) (Homo sapiens, UniProt P15056); details: BRAF (TKL), IPI00303797
T12 construct: determined in kinobeads assays with mass spectrometry detection of kinases as described previously; endogenous in cells; host or cells: cell lysate
From the text: as §1

kinases (kinome) [14] = target: T13, kinases (kinome) (Homo sapiens, UniProt Q13705); details: ACTR2B (TKL), IPI00437565
T13 construct: determined in kinobeads assays with mass spectrometry detection of kinases as described previously; endogenous in cells; host or cells: cell lysate
From the text: as §1

kinases (kinome) [15] = target: T14, kinases (kinome) (Homo sapiens, UniProt O96013); details: PAK4 (STE), IPI00014068
T14 construct: determined in kinobeads assays with mass spectrometry detection of kinases as described previously; endogenous in cells; host or cells: cell lysate
From the text: as §1

kinases (kinome) [16] = target: T15, kinases (kinome) (Homo sapiens, UniProt Q00535); details: CDK5 (CMGC), IPI00023530
T15 construct: determined in kinobeads assays with mass spectrometry detection of kinases as described previously; endogenous in cells; host or cells: cell lysate
From the text: as §1

kinases (kinome) [17] = target: T16, kinases (kinome) (Homo sapiens, UniProt Q9Y6R4); details: MAP3K4 (STE), IPI00386260
T16 construct: determined in kinobeads assays with mass spectrometry detection of kinases as described previously; endogenous in cells; host or cells: cell lysate
From the text: as §1

kinases (kinome) [18] = target: T17, kinases (kinome) (Homo sapiens, UniProt Q13043); details: MST1 (STE), IPI00011488
T17 construct: determined in kinobeads assays with mass spectrometry detection of kinases as described previously; endogenous in cells; host or cells: cell lysate
T17 sequence (Q13043 1-487): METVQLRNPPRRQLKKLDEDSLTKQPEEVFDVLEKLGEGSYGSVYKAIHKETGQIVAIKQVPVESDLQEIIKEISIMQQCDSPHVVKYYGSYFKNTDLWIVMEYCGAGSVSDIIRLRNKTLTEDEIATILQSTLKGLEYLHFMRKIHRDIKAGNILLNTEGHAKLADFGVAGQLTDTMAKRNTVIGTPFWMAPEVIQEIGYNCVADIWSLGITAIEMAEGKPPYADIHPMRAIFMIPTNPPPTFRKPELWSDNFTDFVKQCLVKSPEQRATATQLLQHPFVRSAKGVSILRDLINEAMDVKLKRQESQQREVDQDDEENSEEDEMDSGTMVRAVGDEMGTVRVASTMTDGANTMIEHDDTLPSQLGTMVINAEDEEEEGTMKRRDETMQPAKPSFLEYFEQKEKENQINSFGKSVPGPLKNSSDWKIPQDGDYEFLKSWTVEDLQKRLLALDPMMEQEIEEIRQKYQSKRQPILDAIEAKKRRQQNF
From the text: as §1

kinases (kinome) [19] = target: T18, kinases (kinome) (Homo sapiens, UniProt P06239); details: LCK (TK), IPI00515097
T18 construct: determined in kinobeads assays with mass spectrometry detection of kinases as described previously; endogenous in cells; host or cells: cell lysate
From the text: as §1

Measured: IC50

T15 sequence (Q00535 whole entry): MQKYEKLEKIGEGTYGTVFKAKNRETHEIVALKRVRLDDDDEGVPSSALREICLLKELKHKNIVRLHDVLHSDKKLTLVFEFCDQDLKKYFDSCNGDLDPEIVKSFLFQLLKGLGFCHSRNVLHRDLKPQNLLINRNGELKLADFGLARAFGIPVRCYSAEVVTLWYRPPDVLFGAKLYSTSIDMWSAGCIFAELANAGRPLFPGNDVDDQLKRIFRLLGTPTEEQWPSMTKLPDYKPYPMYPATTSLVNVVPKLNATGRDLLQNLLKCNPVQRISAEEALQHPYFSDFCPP
T13 sequence (Q13705 19-512): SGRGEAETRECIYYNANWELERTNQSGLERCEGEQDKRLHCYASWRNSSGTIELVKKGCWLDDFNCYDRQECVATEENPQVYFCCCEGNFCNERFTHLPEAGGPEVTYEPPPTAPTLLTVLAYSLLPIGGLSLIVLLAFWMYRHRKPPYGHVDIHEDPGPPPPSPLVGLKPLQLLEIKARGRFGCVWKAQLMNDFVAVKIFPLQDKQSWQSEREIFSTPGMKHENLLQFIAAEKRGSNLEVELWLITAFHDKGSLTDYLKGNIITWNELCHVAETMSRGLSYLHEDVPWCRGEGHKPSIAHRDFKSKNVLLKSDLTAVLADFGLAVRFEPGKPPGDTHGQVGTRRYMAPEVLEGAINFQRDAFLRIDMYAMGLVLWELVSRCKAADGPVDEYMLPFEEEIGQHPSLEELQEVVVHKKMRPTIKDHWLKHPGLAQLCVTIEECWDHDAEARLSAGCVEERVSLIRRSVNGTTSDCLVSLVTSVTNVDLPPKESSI
T14 sequence (O96013 whole entry): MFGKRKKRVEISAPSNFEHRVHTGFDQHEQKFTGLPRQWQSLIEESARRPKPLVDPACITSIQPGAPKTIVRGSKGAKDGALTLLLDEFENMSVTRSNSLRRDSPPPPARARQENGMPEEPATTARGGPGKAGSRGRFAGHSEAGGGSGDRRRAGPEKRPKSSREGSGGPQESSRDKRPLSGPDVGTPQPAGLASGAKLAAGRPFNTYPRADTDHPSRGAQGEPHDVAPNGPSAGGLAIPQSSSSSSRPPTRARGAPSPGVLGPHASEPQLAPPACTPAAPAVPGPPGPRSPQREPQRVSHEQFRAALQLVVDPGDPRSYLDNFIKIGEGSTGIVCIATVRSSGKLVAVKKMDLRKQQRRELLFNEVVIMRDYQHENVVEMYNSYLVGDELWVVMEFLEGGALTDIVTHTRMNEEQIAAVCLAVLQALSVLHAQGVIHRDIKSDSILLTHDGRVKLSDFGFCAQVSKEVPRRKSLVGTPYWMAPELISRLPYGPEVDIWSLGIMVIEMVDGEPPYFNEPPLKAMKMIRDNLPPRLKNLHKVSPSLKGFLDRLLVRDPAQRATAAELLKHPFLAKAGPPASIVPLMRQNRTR
T1 sequence (Q04759 whole entry): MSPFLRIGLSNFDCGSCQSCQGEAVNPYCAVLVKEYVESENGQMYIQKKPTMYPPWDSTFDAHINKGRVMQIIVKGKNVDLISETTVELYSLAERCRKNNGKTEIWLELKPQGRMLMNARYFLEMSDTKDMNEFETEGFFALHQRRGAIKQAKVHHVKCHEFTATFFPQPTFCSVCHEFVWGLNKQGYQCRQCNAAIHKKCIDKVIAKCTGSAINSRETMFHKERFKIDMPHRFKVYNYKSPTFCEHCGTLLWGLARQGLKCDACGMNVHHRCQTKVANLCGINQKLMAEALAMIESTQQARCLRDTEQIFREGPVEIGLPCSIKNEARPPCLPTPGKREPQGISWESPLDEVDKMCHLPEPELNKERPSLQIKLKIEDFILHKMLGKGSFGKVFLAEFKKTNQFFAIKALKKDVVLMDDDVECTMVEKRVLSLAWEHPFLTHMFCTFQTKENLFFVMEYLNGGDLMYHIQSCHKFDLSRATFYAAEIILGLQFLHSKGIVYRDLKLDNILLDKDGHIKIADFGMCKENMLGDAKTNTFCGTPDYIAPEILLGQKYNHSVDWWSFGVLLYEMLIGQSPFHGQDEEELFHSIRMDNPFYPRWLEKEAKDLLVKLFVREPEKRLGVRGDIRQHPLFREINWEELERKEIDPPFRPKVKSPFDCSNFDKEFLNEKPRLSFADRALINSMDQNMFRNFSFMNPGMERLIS
T2 sequence (P42338 whole entry): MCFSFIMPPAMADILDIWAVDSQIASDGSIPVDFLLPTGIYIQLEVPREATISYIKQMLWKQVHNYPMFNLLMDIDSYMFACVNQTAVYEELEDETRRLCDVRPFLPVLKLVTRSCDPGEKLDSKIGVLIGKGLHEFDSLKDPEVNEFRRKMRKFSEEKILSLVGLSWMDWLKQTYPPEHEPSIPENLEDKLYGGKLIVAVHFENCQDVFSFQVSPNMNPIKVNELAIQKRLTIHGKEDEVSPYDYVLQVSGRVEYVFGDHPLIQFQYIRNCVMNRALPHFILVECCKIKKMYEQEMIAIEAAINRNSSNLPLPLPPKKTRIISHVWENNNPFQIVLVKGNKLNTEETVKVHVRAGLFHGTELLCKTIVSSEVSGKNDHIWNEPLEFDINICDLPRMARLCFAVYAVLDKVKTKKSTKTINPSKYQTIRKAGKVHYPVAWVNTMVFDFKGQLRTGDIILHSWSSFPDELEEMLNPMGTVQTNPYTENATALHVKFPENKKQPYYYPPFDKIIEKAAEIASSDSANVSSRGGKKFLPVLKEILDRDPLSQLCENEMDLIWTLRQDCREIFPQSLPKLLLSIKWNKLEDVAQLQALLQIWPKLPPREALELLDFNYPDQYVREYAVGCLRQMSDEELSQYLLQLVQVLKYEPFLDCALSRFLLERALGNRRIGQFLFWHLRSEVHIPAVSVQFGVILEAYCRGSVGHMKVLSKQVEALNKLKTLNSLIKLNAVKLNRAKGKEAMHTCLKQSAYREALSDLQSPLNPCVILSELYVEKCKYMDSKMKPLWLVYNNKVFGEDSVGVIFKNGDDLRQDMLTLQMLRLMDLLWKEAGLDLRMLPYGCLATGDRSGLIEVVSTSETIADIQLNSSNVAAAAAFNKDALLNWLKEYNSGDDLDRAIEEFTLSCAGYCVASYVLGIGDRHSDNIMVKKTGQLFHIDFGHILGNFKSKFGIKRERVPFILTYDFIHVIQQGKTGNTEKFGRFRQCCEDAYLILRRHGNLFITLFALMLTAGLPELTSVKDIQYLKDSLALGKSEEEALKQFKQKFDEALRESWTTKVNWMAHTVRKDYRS
T18 sequence (P06239 whole entry): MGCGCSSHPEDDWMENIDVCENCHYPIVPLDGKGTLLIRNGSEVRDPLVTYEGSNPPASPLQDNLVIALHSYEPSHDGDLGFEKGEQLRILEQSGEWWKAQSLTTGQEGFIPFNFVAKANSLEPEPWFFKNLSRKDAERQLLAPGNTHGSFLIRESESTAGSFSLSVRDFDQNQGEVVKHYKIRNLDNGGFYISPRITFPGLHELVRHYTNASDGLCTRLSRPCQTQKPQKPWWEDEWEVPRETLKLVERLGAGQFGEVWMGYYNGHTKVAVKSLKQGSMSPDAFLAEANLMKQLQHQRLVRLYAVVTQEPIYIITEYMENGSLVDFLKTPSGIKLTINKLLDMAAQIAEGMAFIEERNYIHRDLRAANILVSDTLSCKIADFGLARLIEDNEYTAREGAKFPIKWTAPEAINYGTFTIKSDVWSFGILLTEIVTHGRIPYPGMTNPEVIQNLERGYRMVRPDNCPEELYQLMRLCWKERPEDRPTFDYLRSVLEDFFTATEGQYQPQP
T8 sequence (P48729 whole entry): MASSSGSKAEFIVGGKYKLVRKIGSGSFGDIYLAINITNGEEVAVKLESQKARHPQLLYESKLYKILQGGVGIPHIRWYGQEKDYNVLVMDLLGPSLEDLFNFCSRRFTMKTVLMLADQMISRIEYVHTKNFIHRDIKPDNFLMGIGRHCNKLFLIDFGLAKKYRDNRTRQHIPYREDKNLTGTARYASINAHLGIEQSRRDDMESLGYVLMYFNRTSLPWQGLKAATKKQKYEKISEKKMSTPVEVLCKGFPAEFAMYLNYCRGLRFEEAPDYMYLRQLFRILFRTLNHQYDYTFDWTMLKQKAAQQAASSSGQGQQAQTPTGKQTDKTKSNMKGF
T10 sequence (P27448 whole entry): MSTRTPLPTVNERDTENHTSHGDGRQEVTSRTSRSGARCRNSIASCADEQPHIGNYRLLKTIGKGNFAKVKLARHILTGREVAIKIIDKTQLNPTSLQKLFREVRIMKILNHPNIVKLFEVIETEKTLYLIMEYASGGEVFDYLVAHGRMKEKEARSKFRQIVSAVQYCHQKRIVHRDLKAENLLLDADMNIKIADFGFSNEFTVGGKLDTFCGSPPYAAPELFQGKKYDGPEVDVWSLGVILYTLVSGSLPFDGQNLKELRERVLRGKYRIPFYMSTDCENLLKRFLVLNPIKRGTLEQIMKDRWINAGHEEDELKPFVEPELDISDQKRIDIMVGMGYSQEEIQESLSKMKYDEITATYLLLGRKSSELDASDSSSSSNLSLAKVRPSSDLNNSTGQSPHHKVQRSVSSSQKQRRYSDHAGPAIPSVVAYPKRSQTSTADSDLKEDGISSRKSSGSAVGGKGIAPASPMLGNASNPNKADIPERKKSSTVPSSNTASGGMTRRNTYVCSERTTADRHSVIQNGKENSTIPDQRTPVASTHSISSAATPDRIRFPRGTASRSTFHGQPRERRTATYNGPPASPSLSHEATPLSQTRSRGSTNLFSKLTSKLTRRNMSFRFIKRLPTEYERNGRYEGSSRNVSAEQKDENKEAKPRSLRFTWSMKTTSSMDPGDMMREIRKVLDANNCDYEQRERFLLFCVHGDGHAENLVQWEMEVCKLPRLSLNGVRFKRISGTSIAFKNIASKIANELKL

C[C@H]1COCCN1c1nc(-c2ccc(NC(=O)NC3CC3)cc2)cc(-c2cccnc2S(C)(=O)=O)n1 [Example 46, (S)-1-cyclopropyl-3-(4-(2-(3-methylmorpholino)-6-(2-(methylsulfonyl)pyridin-3-yl)pyrimidin-4-yl)phenyl)urea]
> 10 µM: all assays above

C[C@H]1COCCN1c1nc(-c2ccc(NC(=O)NC3CC3)cc2)cc(-c2cc(F)ccc2S(C)(=O)=O)n1 [Example 40, (S)-1-cyclopropyl-3-(4-(6-(5-fluoro-2-(methylsulfonyl)phenyl)-2-(3-methylmorpholino)pyrimidin-4-yl)phenyl)urea]
> 10 µM: all assays above
